We go through six molecules from patent US20070129430A1, “Agent for enhancing the production of collagen, their preparation and use” (priority 2003, published 2007).

Bounds are passed on as bounds.

One test deals with NHDF cells. Briefly: collagen assay: collagen production level of NHDF cells (Sircol Soluble Collagen Assay Kit). Type of test: cell-based, human. Conditions: for concentration dependence of the action of enhancing collagen production (FIG. 3) / order of the levels of action of enhancing collagen production next to 10-HDA (FIG. 3): 0.02 to 1.5 mM fatty acid with 50 μM AA2G; for action of enhancing collagen production (FIG. 1): 5 days culture; for action of enhancing the collagen production by L-ascorbic acid: used in combination with L-ascorbic acid. Here is the method: NHDF cells, a human fibroblast, were seeded in a 96-well microplate (commercialized by Becton Dickinson, N.J., USA) with […] (designated as “DMEM medium” hereinafter, commercialized by Nissui Pharmaceutical Co., Ltd., Tokyo, Japan)(pH 7.1 to 7.4), supplemented with 10% (v/v) fetal calf serum and an adequate amount of penicillin, to give a cell density of 2.5×10^4 cells/well, and incubated at 37° C. for 24 hours under a 5% (v/v) CO2 condition. Thereafter, the supernatant was replaced with 200 μl of a DMEM medium supplemented with a sample having a prescribed concentration and/or 50 μM of L-ascorbic acid 2-glucoside (a product name of “AA2G” with a purity of 98.0% or over, produced by Hayashibara Biochemical Laboratories, Inc., Okayama, Japan), and further cultured for another five days. After completion of the culture, the collagen production level from cells in each well of the microplate was quantified by using “Sircol™ Soluble Collagen Assay Kit”, commercialized by Biocolar Ltd., Northern Ireland.
The action of enhancing the collagen production by 10-HDA was examined by the collagen assay shown in Experiment 1. In the collagen assay, 150 μg/ml of 10-HDA and/or a DMEM medium containing 50 μM of the same AA2G as used in Experiment 1 were used to examine the action of enhancing the collagen production by 10-HDA. As a control, there were provided two systems with 50 μM of AA2G or a DMEM medium free of AA2G, both of which were free of sample. The results are in FIG. 1.
The relationship between the concentration of 10-HDA and the action of enhancing collagen production was also studied. In the collagen assay, using a DMEM medium containing 0 to 300 μg/ml of 10-HDA as a sample and 50 μM of AA2G, the action of enhancing the collagen production by 10-HDA was examined. As a control, a DMEM medium containing 50 μM of AA2G free of sample was provided. The results are in FIG. 2.
The results are in FIG. 3.
To examine the influence of 10-HDA on the action of enhancing the collagen production by L-ascorbic acid or AA2G, the following experiment was conducted: In the collagen assay shown in Experiment 1, the levels of collagen production in cell culture by L-ascorbic acid or 10-HDA were compared and analyzed using a DMEM medium containing as a sample 0, 0.1, 0.2 or 0.5 mg/ml of 10-HDA and 50 μM of L-ascorbic acid or AA2G as L-ascorbic acids in terms of L-ascorbic acid, and another DMEM medium containing as a sample 0, 0.1, 0.2 or 0.5 mg/ml of 10-HDA but free of L-ascorbic acids. The results are in FIG. 4.

The test system of test [1] is TGF-β production in human fibroblasts (NHDF cells). Briefly: TGF-β production in human fibroblasts (TGF-β1 Emax ImmunoAssay System). Conditions: for enhancement of TGF-β production: concrete data not shown; for TGF-β production level: 24 hours, culture supernatant. In kind it is cell-based. The method, then: NHDF cells, a human fibroblast, commercialized by Kurabo Industries Ltd., Okayama, Japan, were seeded in 96-well microplates (commercialized by Becton Dickinson, N.J., USA) with a DMEM medium supplemented with 10% (v/v) fetal calf serum to give a cell density of 2.5×10^4 cells/well, and incubated for 24 hours under a 5% (v/v) CO2 condition. Thereafter, the supernatant in each microplate was removed, replaced with a fresh DMEM medium containing 0, 0.5 or 1.5 mM of 10-HDA and 0.2 μg/ml of AA2G, and cultured for 24 hours. After completion of the culture, the level of TGF-β in a supernatant of each well of the microplates was quantified by using “TGF-β1 E MAX IMMUNO ASSAY SYSTEM”, commercialized by Promega Corp., Wis., USA, and the data were statistically handled.

Regarding `CCCCCCCC=CC(=O)O` [2-decenoic acid], in the test on NHDF cells, the “concentration dependence of the action of enhancing collagen production (FIG. 3)” value was “roughly in a concentration dependent manner”; the “order of the levels of action of enhancing collagen production next to 10-HDA (FIG. 3)” value is “in the order of 10-hydroxydecanoic acid, 2-decenoic acid, decanoic acid, and sebacic acid”. Further, the “enhancement of TGF-β production” value in test [1] is recorded as “also enhance TGF-β production”.
For `O=C(O)CCCCCCCCCO` [10-hydroxydecanoic acid], in the test on NHDF cells, the “concentration dependence of the action of enhancing collagen production (FIG. 3)” value was “roughly in a concentration dependent manner”; the “order of the levels of action of enhancing collagen production next to 10-HDA (FIG. 3)” value is “in the order of 10-hydroxydecanoic acid, 2-decenoic acid, decanoic acid, and sebacic acid”. For the same molecule, in test [1], the “enhancement of TGF-β production” value was “also enhance TGF-β production”.
Consider `O=C1O[C@H]([C@@H](O)CO)C(O)=C1O[C@H]1O[C@H](CO)[C@@H](O)[C@H](O)[C@H]1O` [AA2G, L-ascorbic acid 2-glucoside], for which the “action of enhancing collagen production of L-ascorbic acid derivatives used in combination with fatty acids” value in the test on NHDF cells (in combination with fatty acids such as 10-HDA, concrete data not shown) is “more remarkable action of enhancing collagen production”.
As for `O=C(O)CCCCCCCCC(=O)O` [sebacic acid], the “enhancement of TGF-β production” value in test [1] is listed as “also enhance TGF-β production”.
Take `CCCCCCCCCC(=O)O` [decanoic acid]: in test [1], the “enhancement of TGF-β production” value is on record as “also enhance TGF-β production”.
For `O=C(O)C=CCCCCCCCO` [10-HDA, 10-hydroxy-2-decenoic acid], the “action of enhancing collagen production (FIG. 4)” value is reported as “action of enhancing collagen production in a concentration dependent manner” in the test with NHDF cells (0, 0.1, 0.2 or 0.5 mg/ml 10-HDA in the presence of 50 μM AA2G (in terms of L-ascorbic acid)) and “action of enhancing collagen production in a concentration dependent manner” in the test with NHDF cells (0, 0.1, 0.2 or 0.5 mg/ml 10-HDA in the presence of 50 μM L-ascorbic acid). Moreover, in the test with NHDF cells (0 to 300 μg/ml 10-HDA with 50 μM AA2G), the “concentration dependence of the action of enhancing collagen production (FIG. 2)” value is listed as “concentration-dependent action of enhancing collagen production”. The “action of enhancing collagen production (FIG. 1)” value in the test with NHDF cells (150 μg/ml 10-HDA in combination with 50 μM AA2G) is “distinct action of enhancing collagen production”; with NHDF cells (150 μg/ml 10-HDA, absence of AA2G) it was “did not show the action of enhancing collagen production”. For the same molecule, the “action of enhancing collagen production (FIG. 3)” value in the test with NHDF cells (0.02, 0.06, 0.17, 0.5 or 1.5 mM fatty acid with 50 μM AA2G) was “significantly high action of enhancing collagen production”. The “action of enhancing collagen production with AA2G relative to that attained with L-ascorbic acid (FIG. 4)” value with NHDF cells (10-HDA with 50 μM AA2G versus 50 μM L-ascorbic acid) was “about two-times higher”. Besides, in the test on NHDF cells (used alone, without L-ascorbic acid), the “action of inducing collagen production when used alone” value was “did not show an action of inducing collagen production”. The entries for the “action of enhancing the collagen production by L-ascorbic acid” value with NHDF cells and with NHDF cells (listed as Ingredient X) were “exhibited an action of enhancing the collagen production by L-ascorbic acid” and “This result coincided with that of Ingredient X”, respectively. Further, the “concentration giving maximum action of enhancing collagen production (FIG. 3)” value in the test with NHDF cells (with 50 μM AA2G) is at least 0.17 mM. Moreover, the TGF-β production level was 292 ± 68 pg/mL in test [1] (0.5 mM 10-HDA with 0.2 μg/ml AA2G) and 378 ± 74 pg/mL in test [1] (1.5 mM 10-HDA with 0.2 μg/ml AA2G). Besides, in test [1] (in the presence of AA2G, 0 to 1.5 mM), the “enhancement of TGF-β production in human fibroblasts” value is listed as “enhances the TGF-β production in human fibroblasts in a concentration dependent manner”.
